{"source": "patent US5002963A", "about": "“3-indolepyruvic acid derivatives and pharmaceutical use thereof” (priority 1987, dated 1991)", "key": {"kynurenic acid [1]": {"tested_on": "kynurenic acid", "assay": "Test 5: time course of the kynurenic acid levels after administration of IPA", "format": "in vivo, rats", "settings": "250 mg/Kg i.p.; for kynurenic acid level, Brain / kynurenic acid level, Heart / kynurenic acid level, Kidney / kynurenic acid level, Liver: ± standard error", "text": "(§1) For the measurement of such levels after administration of 3-indolepyruvic acid or a derivative thereof, a system was set up based on ultraviolet detection of the compounds separated by high pressure liquid chromatography.\n(§2) Briefly, after sacrific of the animal, some of the principal organs were taken and homogenized with alkaline ethanol. Proteins and cell remains were removed by centrifugation, whilst the over natant was adsorbed on Bio-Rad AG 1×8 resin. After washing with water it was eluted with formic acid. It was then passed on Bio-Rad AG 50W-×8 resin, eluted with 3% ammonia, dried and retaken with a small amount of water.\n(§3) The sample thus obtained was injected into a Waters apparatus for high pressure liquid chromatography, using a C18 10 micron column and eluting with 0,02 m citric acid containing 10% of methanol. The kynurenic acid levels were extrapolated by the calibration line of the acid and reading at 234 nm.\nMale rats, in lots of five animals each, were treated i.p. with 250 mg/Kg IPA and were sacrificed at different times, evaluating the levels of kynurenic acid present in various organs.\nThe results are reported in picomoles/g±standard error."}, "[2]": {"tested_on": "audiogenic convulsions in DBA2 mice", "assay": "Test 6: audiogenic convulsions in DBA2 mice", "format": "in vivo", "settings": "for Animals with convulsions, % / Animals with convulsions: one hour before the test; for Animals with convulsions: number/total", "protocol": "To evaluate whether an increase in kynurenic acid in the brain after administration of IPA could have a protective action on neurons stressed by excitatory aminoacids, the experimental pattern of inducing convulsions in a particular strain of mice (DBA2) by selected sound stimulations was followed. […] The substances were injected intravenously one hour before the test. Then the number of animals showing tonic convulsions was measured."}, "kynurenic acid [3]": {"tested_on": "kynurenic acid", "assay": "Test 3: effect on the content of kynurenic acid after administration of IPA in rat", "format": "in vivo", "settings": "3 hours, ± standard error"}, "Kidney homogenate": {"tested_on": "Kidney homogenate", "assay": "Test 2: transformation into kynurenic acid in tissue homogenates (kidney)", "format": "in vitro ADME, rats", "protocol": "(§4) Male rats fasting for 16 hours were sacrificed and their organs were taken and homogenized in 5 volumes of 0,05 M phosphate buffer pH 7,4+0,14 M KCl.\n(§5) Small amounts of homogenate (0,8 ml) were additioned with various amounts of 3-indolepyruvic acid or the derivatives thereof, dissolved into a buffer solution, and with a system for the production of free radicals, consisting of ascorbic acid (final 10^-5 M), FeCl3 (final 10^-6 M) and H2 O2 (final 10^-4 M). It was stirred at 37° C., then the reaction was blocked."}, "[4]": {"assay": "Test 1: transformation of 3-indolepyruvic acid into kynurenic acid in vitro, within a non enzymatic system", "format": "physicochemical", "settings": "from 2 mg, HCl 0,1 M, O2 and light", "protocol": "When 3-indole pyruvic acid or a derivative thereof of formula 1 is incubated in a slightly acid solution (HCl 0,1 M), in the presence of oxidising agents (O2) and light, in time the formation of small amounts of kynurenic acid is observed. Particularly starting from 2 mg 3-indolepyruvic acid, 0,5 micrograms are obtained after 2 hours and 0,7 micrograms after 4 hours."}, "kynurenic acid [5]": {"tested_on": "kynurenic acid", "assay": "Test 3: effect on the content of kynurenic acid after administration of IPA in rat", "format": "in vivo", "text": "as §1, §2, §3\nMale rats were treated with saline solution (controls) or with various doses of IPA, which was injected 3 hours before sacrifice. Each lot comprised 10 animals.\nThe results are reported in picomoles/g of tissue (or ml of blood)±standard error."}, "Stability": {"assay": "Stability", "format": "physicochemical"}, "Brain homogenate": {"tested_on": "Brain homogenate", "assay": "Test 2: transformation into kynurenic acid in tissue homogenates (brain)", "format": "in vitro ADME, rats", "settings": "for Amount of kynurenic acid formed: brain homogenate, 1.6 mg", "protocol": "as §4, §5"}, "NMDA induced convulsions": {"tested_on": "NMDA induced convulsions", "assay": "Test 7: NMDA induced convulsions", "format": "in vivo, Mice of Albino Swiss strain", "protocol": "Mice of Albino Swiss strain were treated with saline (controls) or with IPA (1 g/Kg i.p.) one hour before receiving a toxic dose of NMDA (154 mg/Kg i.p.)."}, "[6]": {"tested_on": "tryptophan and kynurenic acid in the brain of rats", "settings": "rat, in vivo", "text": "as §1, §2, §3\nMale rats were treated with saline solution (controls), IPA or tryptophan i.p. one hour before sacrifice. Each lot was of six animals.\nThe reported values are in picomoles/g for kynurenic acid and picomoles/mg for tryptophan."}, "Water solubility": {"assay": "Water solubility", "format": "physicochemical"}, "[7]": {"settings": "100 mg/Kg i.p., 3 hours, ± standard error"}, "[8]": {"settings": "250 mg.Kg i.p., 3 hours, ± standard error"}, "[9]": {"settings": "500 mg.Kg i.p., 3 hours, ± standard error"}, "[10]": {"settings": "1 g/Kg i.p. one hour before NMDA 154 mg/Kg i.p., number/total"}}, "note": "Counter-ions that a name gives are not always drawn."}
{"smiles": "O=C(O)C(=O)Cc1c[nH]c2ccccc12", "note": "[3-indolepyruvic acid]", "values": [{"measurement": "kynurenic acid levels over time in the organs (in words)", "setting": "kynurenic acid [1]", "result": "high increase of kynurenic acid in all the organs under test (maximum in kidney). The levels remain high even after 4 hours from administration"}, {"measurement": "kynurenic acid level, Brain", "setting": "kynurenic acid [1]; 1 hour", "result": "39 ± 4", "unit": "picomoles/g"}, {"measurement": "kynurenic acid level, Heart", "setting": "kynurenic acid [1]; 1 hour", "result": "181 ± 18", "unit": "picomoles/g"}, {"measurement": "kynurenic acid level, Kidney", "setting": "kynurenic acid [1]; 1 hour", "result": "2593 ± 250", "unit": "picomoles/g"}, {"measurement": "kynurenic acid level, Liver", "setting": "kynurenic acid [1]; 1 hour", "result": "827 ± 50", "unit": "picomoles/g"}, {"measurement": "kynurenic acid level, Brain", "setting": "kynurenic acid [1]; 2 hours", "result": "32 ± 3", "unit": "picomoles/g"}, {"measurement": "kynurenic acid level, Heart", "setting": "kynurenic acid [1]; 2 hours", "result": "177 ± 20", "unit": "picomoles/g"}, {"measurement": "kynurenic acid level, Kidney", "setting": "kynurenic acid [1]; 2 hours", "result": "2395 ± 200", "unit": "picomoles/g"}, {"measurement": "kynurenic acid level, Liver", "setting": "kynurenic acid [1]; 2 hours", "result": "464 ± 40", "unit": "picomoles/g"}, {"measurement": "kynurenic acid level, Brain", "setting": "kynurenic acid [1]; 3 hours", "result": "38 ± 4", "unit": "picomoles/g"}, {"measurement": "kynurenic acid level, Heart", "setting": "kynurenic acid [1]; 3 hours", "result": "104 ± 12", "unit": "picomoles/g"}, {"measurement": "kynurenic acid level, Kidney", "setting": "kynurenic acid [1]; 3 hours", "result": "1480 ± 150", "unit": "picomoles/g"}, {"measurement": "kynurenic acid level, Liver", "setting": "kynurenic acid [1]; 3 hours", "result": "235 ± 5", "unit": "picomoles/g"}, {"measurement": "kynurenic acid level, Brain", "setting": "kynurenic acid [1]; 4 hours", "result": "28 ± 3", "unit": "picomoles/g"}, {"measurement": "kynurenic acid level, Heart", "setting": "kynurenic acid [1]; 4 hours", "result": "100 ± 11", "unit": "picomoles/g"}, {"measurement": "kynurenic acid level, Kidney", "setting": "kynurenic acid [1]; 4 hours", "result": "1200 ± 150", "unit": "picomoles/g"}, {"measurement": "kynurenic acid level, Liver", "setting": "kynurenic acid [1]; 4 hours", "result": "122 ± 10", "unit": "picomoles/g"}, {"measurement": "Animals with convulsions, %", "setting": "[2]; 200 mg/Kg intravenously", "result": 33, "unit": "%"}, {"measurement": "Animals with convulsions", "setting": "[2]; 200 mg/Kg intravenously", "result": "4/12"}, {"measurement": "protective action against tonic convulsions induced by sound stimulations (in words)", "setting": "[2]; DBA2 mice", "result": "good protective action"}, {"measurement": "kynurenic acid content, Blood", "setting": "kynurenic acid [3]; 100 mg/Kg per os", "result": "87 ± 8 picomoles/ml of blood"}, {"measurement": "kynurenic acid content, Brain", "setting": "kynurenic acid [3]; 100 mg/Kg per os", "result": "28 ± 2 picomoles/g of tissue"}, {"measurement": "kynurenic acid content, Liver", "setting": "kynurenic acid [3]; 100 mg/Kg per os", "result": "275 ± 25 picomoles/g of tissue"}, {"measurement": "kynurenic acid content, Liver", "setting": "kynurenic acid [3]; 250 mg.Kg i.p.", "result": "547 ± 35 picomoles/g of tissue"}, {"measurement": "kynurenic acid content, Blood", "setting": "kynurenic acid [3]; 250 mg/Kg per os", "result": "120 ± 12 picomoles/ml of blood"}, {"measurement": "kynurenic acid content, Brain", "setting": "kynurenic acid [3]; 250 mg/Kg per os", "result": "38 ± 3 picomoles/g of tissue"}, {"measurement": "kynurenic acid content, Liver", "setting": "kynurenic acid [3]; 250 mg/Kg per os", "result": "485 ± 40 picomoles/g of tissue"}, {"measurement": "kynurenic acid content, Liver", "setting": "kynurenic acid [3]; 500 mg.Kg i.p.", "result": "2860 ± 300 picomoles/g of tissue"}, {"measurement": "Amount of kynurenic acid formed", "setting": "Kidney homogenate; final 0.8 mg, 30'", "result": 160, "unit": "ng"}, {"measurement": "Amount of kynurenic acid formed", "setting": "Kidney homogenate; final 0.8 mg, 60'", "result": 190, "unit": "ng"}, {"measurement": "Amount of kynurenic acid formed", "setting": "Kidney homogenate; final 0.8 mg, 120'", "result": 208, "unit": "ng"}, {"measurement": "Amount of kynurenic acid formed", "setting": "Kidney homogenate; final 1.6 mg, 30'", "result": 232, "unit": "ng"}, {"measurement": "Amount of kynurenic acid formed", "setting": "Kidney homogenate; final 1.6 mg, 60'", "result": 280, "unit": "ng"}, {"measurement": "Amount of kynurenic acid formed", "setting": "Kidney homogenate; final 1.6 mg, 120'", "result": 315, "unit": "ng"}, {"measurement": "Amount of kynurenic acid formed", "setting": "Kidney homogenate; final 4 mg, 30'", "result": 185, "unit": "ng"}, {"measurement": "Amount of kynurenic acid formed", "setting": "Kidney homogenate; final 4 mg, 60'", "result": 221, "unit": "ng"}, {"measurement": "Amount of kynurenic acid formed", "setting": "Kidney homogenate; final 4 mg, 120'", "result": 270, "unit": "ng"}, {"measurement": "kynurenic acid obtained", "setting": "[4]; after 2 hours", "result": "0,5 micrograms"}, {"measurement": "kynurenic acid obtained", "setting": "[4]; after 4 hours", "result": "0,7 micrograms"}, {"measurement": "kynurenic acid content, Blood", "setting": "kynurenic acid [5]; [7]", "result": "62 ± 3 picomoles/ml of blood"}, {"measurement": "kynurenic acid content, Brain", "setting": "kynurenic acid [5]; [7]", "result": "24 ± 1 picomoles/g of tissue"}, {"measurement": "kynurenic acid content, Liver", "setting": "kynurenic acid [5]; [7]", "result": "240 ± 20 picomoles/g of tissue"}, {"measurement": "kynurenic acid content, Blood", "setting": "kynurenic acid [5]; [8]", "result": "164 ± 10 picomoles/ml of blood"}, {"measurement": "kynurenic acid content, Brain", "setting": "kynurenic acid [5]; [8]", "result": "32 ± 3 picomoles/g of tissue"}, {"measurement": "kynurenic acid content, Blood", "setting": "kynurenic acid [5]; [9]", "result": "442 ± 20 picomoles/ml of blood"}, {"measurement": "kynurenic acid content, Brain", "setting": "kynurenic acid [5]; [9]", "result": "110 ± 10 picomoles/g of tissue"}, {"measurement": "kynurenic acid in brain, times higher than the controls", "setting": "kynurenic acid [5]; 500 mg/Kg", "result": "six"}, {"measurement": "increase in the levels of kynurenic acid in the tissues (in words)", "setting": "kynurenic acid [5]; rat, in vivo", "result": "dose-dependent"}, {"measurement": "stability (in words)", "setting": "Stability", "result": "highly instable"}, {"measurement": "transformation into kynurenic acid in brain homogenate (in words)", "setting": "Brain homogenate", "result": "able to transform into kynurenic acid in the brain"}, {"measurement": "Amount of kynurenic acid formed", "setting": "Brain homogenate; 30'", "result": 165, "unit": "ng"}, {"measurement": "Amount of kynurenic acid formed", "setting": "Brain homogenate; 60'", "result": 280, "unit": "ng"}, {"measurement": "Amount of kynurenic acid formed", "setting": "Brain homogenate; 120'", "result": 380, "unit": "ng"}, {"measurement": "Deaths", "setting": "NMDA induced convulsions; [10]", "result": "3/9"}, {"measurement": "Tonic convulsions", "setting": "NMDA induced convulsions; [10]", "result": "5/9"}, {"measurement": "protection against convulsions and death induced by NMDA (in words)", "setting": "NMDA induced convulsions; mouse, in vivo", "result": "able to protect mice against both convulsions and death induced by NMDA"}, {"measurement": "precursor of cerebral kynurenic acid (in words)", "setting": "[6]", "result": "selective precursor of cerebral kynurenic acid"}, {"measurement": "KYN/TRP × 10^3", "setting": "[6]; ip, 250 mg/kg", "result": 0.40}]}
{"smiles": "O=C(O)C(=O)Cc1c[nH]c2ccccc12", "note": "[Mg^++ IPA salt, Mg salt of 3-indolepyruvic acid]", "values": [{"measurement": "Animals with convulsions, %", "setting": "[2]; intravenously, dose not given", "result": 29, "unit": "%"}, {"measurement": "Animals with convulsions", "setting": "[2]; intravenously, dose not given", "result": "4/14"}, {"measurement": "solubility in water (in words)", "setting": "Water solubility", "result": "water soluble"}]}
